According to paper PMC3020970, “K70Q Adds High-Level Tenofovir Resistance to “Q151M Complex” HIV Reverse Transcriptase through the Enhanced Discrimination Mechanism” (PLoS ONE, 2011):
Several values for one entry are separate records, joined by “and”; a condition that tells them apart may be missing. Equal values may be shown once. Read-outs that look alike come from different tables or passages of the source. Marks after values point to notes of the source that are not given here.

Key:
Assay type in all cases: biochemical
HIV-1 RT K70Q/Q151Mc [1] = target: T1, HIV-1 RT K70Q/Q151Mc (Human immunodeficiency virus type 1 group M subtype B, UniProt P03366, A661V/F676L/F715Y/K669Q/Q750M/V674I); assay: Primer extension assay
T1 construct: made in house; host or cells: Escherichia coli BL21
Method: (§1) RT sequences coding for the p66 and p51 subunits of BH10 were cloned in the pRT dual vector, which is derived from pCDF-2 with LIC duet minimal adaptor (Novagen), using restriction sites PpuMI and SacI for the p51 subunit, and SacII and AvrII for the p66 subunit. RT was expressed in the Escherichia coli strain BL21 (Invitrogen) and purified by nickel affinity chromatography and MonoQ anion exchange chromatography. RT concentrations were determined spectrophotometrically based on absorption at […] using a calculated extinction coefficient (261,610 M^−1 cm^−1). The active site concentration of the various RT preparations was calculated as described below.
(§2) DNA oligomers were synthesized by Integrated DNA Technologies (Coralville, IA). An 18-nucleotide DNA primer fluorescently labeled with Cy3 at the 5′ end (P18; 5′-Cy3 GTC CCT GTT CGG GCG CCA-3′) and a 100-nucleotide DNA template (T100; 5′-TAGTGTGTGCCCGTCTGTTGTGTGACTCTGGTAACTAGAGATCCCTCAGACCCTTTTAGTCAGTGTGGAAAATCTCTAGCAGTGGCGCCCGAACAGGGAC-3′) were used in primer extension assays. An 18-nucleotide DNA primer 5′-labeled with Cy3 (P18; 5′-Cy3 GTC ACT GTT CGA GCA CCA-3′) and a 31-nucleotide DNA template (T31; 5′- CCATAGCTAGCATTGGTGCTCGAACAGTGAC-3′) were used in the ATP rescue assay and pre-steady state kinetic experiments.
(§3) The enzyme (20 nM active sites) was incubated with 20 nM template/primer at 37°C in a buffer containing 50 mM Tris-HCl, pH 7.8 and 50 mM NaCl. The DNA synthesis was initiated by the addition of 1 µM dNTP and 10 mM MgCl2. The primer extension assays were carried out in the presence or absence of varying concentrations of TFV-DP. The reactions were terminated after 15 min by adding equal volume of 100% formamide containing traces of bromophenol blue. The extension products were resolved on a 7 M urea-15% polyacrylamide gel, and visualized by phosphor-imaging (FLA 5100, Fujifilm, Tokyo). We followed standard protocols that utilize the Multi Gauge software (Fujifilm) to quantitate primer extension, [44]. The results from dose response experiments were plotted using Prism 4 (GraphPad Software Inc., CA) and IC50 values for TFV-DP were obtained at midpoint concentrations.

HIV-1 RT Q151Mc [2] = target: T2, HIV-1 RT Q151Mc (Human immunodeficiency virus type 1 group M subtype B, UniProt P03366, A661V/F676L/F715Y/Q750M/V674I); assay: Primer extension assay
T2 construct: made in house; host or cells: Escherichia coli BL21
Method: as §1, §2, §3

HIV-1 RT WT [3] = target: T3, HIV-1 RT WT (Human immunodeficiency virus type 1 group M subtype B, UniProt P03366); assay: Primer extension assay
T3 construct: made in house; host or cells: Escherichia coli BL21
Method: as §1, §2, §3

HIV-1 RT K70Q/Q151Mc [4] = target: T1, HIV-1 RT K70Q/Q151Mc; assay: Pre-steady state kinetics of binding and incorporation
Method: (§4) Determination of active site concentrations in the different preparations of WT and mutant RTs were performed using pre-steady state burst experiments. […] The reactions were quenched at various times (10 ms to 5 s) by adding EDTA to a final concentration of 50 mM. The amounts of product (P18-dAMP) were quantitated and fit to the following burst equation: [drawing 1] (1) where A is the amplitude of the burst phase that represents the RT-DNA complex at the start of the reaction, k obs is the observed burst rate constant for dNTP incorporation, k ss is the steady state rate constant, and t is the reaction time. The rate constant of the linear phase (kcat) can be estimated by dividing the slope of the linear phase by the enzyme concentration. The active site concentration and template/primer binding affinity (KD-DNA) were determined by plotting the amplitude (A) against the concentration of template/primer. The data were fit using non-linear regression to a quadratic equation: [drawing 2] (2) where KD is the dissociation constant for the RT-DNA complex, and [RT] is the concentration of active polymerase molecules. Subsequent biochemical experiments were performed using corrected active site concentrations, [43].
(§5) HIV-1 RT (50 nM active sites) was pre-incubated with 50 nM T31/P18 in one syringe (Syringe A), whereas varying concentrations of dNTP and 10 mM MgCl2 were kept in another syringe (Syringe B). The solutions were rapidly mixed to initiate reactions, which were subsequently quenched at various times (5 ms to 10 s) by adding EDTA to a final concentration of 50 mM. The products from each quenched reaction were resolved, quantitated, and plotted as described above. The data were fit by non-linear regression to the burst equation (Eq 1).
(§6) To obtain the dissociation constant KD-dNTP for dNTP binding to the RT-DNA complex, the observed burst rates (kobs) were fit to the hyperbolic equation (Eq. 3) using nonlinear regression: [drawing 3] (3) where kpol is the optimal rate of dNTP incorporation.
(§7) The kinetics of TFV incorporation by the WT and mutant enzymes were carried out in a manner similar to that employed for natural dNTP substrate except the time of reactions. It was noted that the mutant enzymes required longer time to incorporate TFV compared to the WT HIV-1 RT (detailed in the Results section).

HIV-1 RT Q151Mc [5] = target: T2, HIV-1 RT Q151Mc; assay: as above
Method: as §4, §5, §6, §7

HIV-1 RT WT [6] = target: T3, HIV-1 RT WT; assay: as above
Method: as §4, §5, §6, §7

[7] = with 3.5 mM ATP, read-out: IC50 of TFV-DP, with ATP
[8] = without ATP, read-out: IC50 of TFV-DP, without ATP

CC(Cn1cnc2c(N)ncnc21)OCP(=O)(O)OP(=O)(O)OP(=O)(O)O (stereo in doubt) [TFV-DP, tenofovir-diphosphate]
Excision enhancement due to ATP (IC50 with ATP/IC50 without ATP) (HIV-1 RT K70Q/Q151Mc [1]): 2.9 fold
IC50 (HIV-1 RT K70Q/Q151Mc [1]; [7]): 7000 ± 226 nM
Fold increase in IC50 vs WT RT, with ATP (HIV-1 RT K70Q/Q151Mc [1]; with ATP): (3.8) fold
Fold increase in IC50 vs WT RT, without ATP (HIV-1 RT K70Q/Q151Mc [1]; without ATP): (3.7) fold
IC50 (HIV-1 RT K70Q/Q151Mc [1]; [8]): 2390 ± 353 nM
Excision enhancement due to ATP (IC50 with ATP/IC50 without ATP) (HIV-1 RT Q151Mc [2]): 2.7 fold
IC50 (HIV-1 RT Q151Mc [2]; [7]): 4000 ± 341 nM
Fold increase in IC50 vs WT RT, with ATP (HIV-1 RT Q151Mc [2]; with ATP): (2.1) fold
Fold increase in IC50 vs WT RT, without ATP (HIV-1 RT Q151Mc [2]; without ATP): (2.3) fold
IC50 (HIV-1 RT Q151Mc [2]; [8]): 1500 ± 90 nM
Excision enhancement due to ATP (IC50 with ATP/IC50 without ATP) (HIV-1 RT WT [3]): 2.9 fold
IC50 (HIV-1 RT WT [3]; [7]): 1850 ± 197 nM
Fold increase in IC50 vs WT RT, with ATP (HIV-1 RT WT [3]; with ATP): (1) ^b fold
Fold increase in IC50 vs WT RT, without ATP (HIV-1 RT WT [3]; without ATP): (1) ^b fold
IC50 (HIV-1 RT WT [3]; [8]): 641 ± 83 nM
Selectivity (k pol/Kd)dATP/(k pol/Kd)TFV-DP (HIV-1 RT K70Q/Q151Mc [4]; K70Q/Q151Mc RT): 26.3
k pol/Kd (HIV-1 RT K70Q/Q151Mc [4]; K70Q/Q151Mc RT): 110000 M⁻¹ s⁻¹ and 110000 ± 30000 M⁻¹ s⁻¹
Reduced affinity for TFV than the WT enzyme (HIV-1 RT K70Q/Q151Mc [4]; K70Q/Q151Mc RT vs WT RT): more than 4.5 fold
k pol (HIV-1 RT K70Q/Q151Mc [4]; K70Q/Q151Mc RT, T31/P18, 37°C): 1.0 ± 0.03 s⁻¹
Kd (HIV-1 RT K70Q/Q151Mc [4]; K70Q/Q151Mc RT, binding to RT-DNA complex): 8900 ± 2100 nM
Selectivity (k pol/Kd)dATP/(k pol/Kd)TFV-DP (HIV-1 RT Q151Mc [5]): 11
k pol/Kd (HIV-1 RT Q151Mc [5]): 300000 M⁻¹ s⁻¹ and 300000 ± 60000 M⁻¹ s⁻¹
k pol (HIV-1 RT Q151Mc [5]; T31/P18, 37°C): 1.3 ± 0.03 s⁻¹
Kd (HIV-1 RT Q151Mc [5]; binding to RT-DNA complex): 4300 ± 800 nM
Selectivity (k pol/Kd)dATP/(k pol/Kd)TFV-DP (HIV-1 RT WT [6]): 1.6
k pol/Kd (HIV-1 RT WT [6]): 1.47e+06 M⁻¹ s⁻¹ and 1.47e+06 ± 70000 M⁻¹ s⁻¹
k pol (HIV-1 RT WT [6]; T31/P18, 37°C): 2.8 s⁻¹ and 2.8 ± 0.08 s⁻¹
Kd (HIV-1 RT WT [6]; binding to RT-DNA complex): 1900 ± 200 nM
